Here are results for three compounds from US20060134097A1, “Process for production of aqueous colloid of graphite silica particles emitting far-infrared rays” (priority 2004, published 2006).

Test [1] concerns writhing reaction induced by acetic acid in mice. The test can be described thus: acetic acid-induced writhing reaction. The conditions noted are these: count over 10 minutes from 10 minutes after 0.7% acetic acid i.p.; s.c. 30 minutes before: aspirin 300 mg/kg, colloid 0.1 ml/10 g. It counts as in vivo. An excerpt: Then, an analgesic effect of the aqueous colloid of the present invention in mice was studied using a writhing reaction induced by acetic acid. In the observation of the behavior of twisting in response e.g. to a pain due to acetic acid irritation in the peritoneal cavity (writhing), when the administration of an agent suppresses the writhing reaction, the agent can be said to have depressed pseudo affective response, assessing it as having an anti-nociceptive effect. 1) ddy strain male mice (7-week old; 27 to 38 g; 6 mice per group); 2) drug solution: aspirin in 0.1 M Tris-Hydrochloride buffer as a solvent (pH 7.8); […] 4) the aqueous colloid of the present invention: 100 ml of the nanocolloid of the present invention to which 0.9 g of sodium chloride was added to make an isotonicsolution. 1) dividing mice into 3 groups to subcutaneously administer, to an aspirin (300 mg/kg) treatment group, the aspirin solution, the Tris-Hydrochloride buffer to a control group, and the aqueous nanocolloid (0.1 ml/10 g) to the remaining group; […] 3) starting to count the frequency of writhing 10 minutes after the administration of the acetic acid and recording a frequency of writhing during a period of 10 minutes. (See FIG. 10)

Test [2] concerns Tyrosinase derived from mushroom. The test can be described thus: tyrosinase activity inhibition. The settings on record: control agents. Type of test: biochemical. The protocol: The above aqueous colloid (conc) of the present invention as a basic material, and ascorbic acid and hydroquinone as control agents were used. Tyrosinase used that derived from mushroom (from Sigma Co., Ltd.: 2,500 U/mg). Specifically, for testing an inhibiting effect against tyrosinase activity, 4 kinds of solutions were prepared. (1) a tyrosine solution (0.5 mg/ml); 0.5 ml loading, (2) a 1/15 M phosphate buffer (pH 6.8); 2.0 ml loading, (3) a tyrosine solution (6.0 mg/100 ml); 0.5 ml loading, and (4) a test solution: the nanocolloid particle and/or the aqueous colloid of the present invention, ascorbic acid, or hydroquinone (0.005, 0.01, 0.05, 0.1, 0.5 mg) dissolved in buffer; 2.0 ml loading. The solutions of (1) to (4) were mixed to incubate at 37° C. for one hour, followed by the measurement of absorbance (At) at 475 nm. In addition, the absorbance obtained by adding the phosphate buffer (2 ml) in place of each test solution to carry out the same operation (Ab) was used as control to determine an inhibition rate. The inhibition rate was calculated from the resultant Ab and At values using the formula: inhibition rate=(Ab−At)/Ab×100.

SMILES strings stand for the structures.

`CC(=O)Oc1ccccc1C(=O)O` [aspirin] returned a frequency of writhing in test [1] of 10.5±1.2.

As for `Oc1ccc(O)cc1` [hydroquinone], the tyrosinase activity entry in test [2] is “inhibited the tyrosinase activity”.

Turning to `O=C1O[C@H]([C@@H](O)CO)C(O)=C1O` [ascorbic acid], the tyrosinase activity result in test [2] is “inhibited the tyrosinase activity”.
